According to article PMC5727842, “Antioxidant and Antidiabetic Effects of Flavonoids: A Structure-Activity Relationship Based Study” (BioMed Research International, 2017):
Converted amounts (≈) assume the structure as drawn.

Columns and labels:
[1] = Rapid screening of radical scavenging activity by dot blot assay (DPPH staining); settings: silica sheet stained with DPPH in MeOH, dilutions from 1000 μg/mL
Protocol: An aliquot (20 μL) of each dilution of each group was carefully loaded on a […] TLC plate and allowed to dry for 10 min. Drops of each sample were loaded in the order of decreased concentration along the 16 columns. The staining of the silica plate was based on the procedure of Soler-Rivas et al.. […] The intensity of the yellow color depends upon the amount and nature of radical scavenger present in the flavonoids.

[2] = ABTS+ radical scavenging assay; settings: 734 nm, mean ± SEM (n = 3)
Protocol: An improved ABTS^+ radical decolorization assay was carried out involving direct production of the blue/green ABTS^+ chromophore through the reaction between ABTS and potassium persulfate. Addition of antioxidant to the preformed radical cation reduces it to ABTS to an extent on a time scale depending on the antioxidant activity, the concentration of the antioxidant, and the duration of the reaction. 1 ml ABTS was dissolved in water to make 7 mM concentration of the resultant solution. […] The resultant reaction mixture was allowed to stand in the dark at room temperature for 12–16 h before being used. The ABTS^+ radical solution was diluted with MeOH to an absorbance of 0.7 (±0.02) at 734 nm. Then, 100 μl of sample at various concentrations (1000–0.4889 μg/mL) was mixed with 100 μL of diluted ABTS^+ radical. Each concentration was analyzed in triplicate and the percentage decrease of absorbance at 734 nm with a microplate reader (Tecan NanoQuant Infinite M200, Switzerland) was calculated for each point and the antioxidant capacity of the tested compounds was expressed as percent inhibition (%). The radical scavenging activity of the compounds was measured according to the following equation [29]:(2) % inhibition=Acontrol−Asample/Acontrol×100. IC50 values were calculated by linear regression of plots, and the average percent of scavenging capacity was taken from three replicates. Trolox was used as a standard in comparison for the determination of the antioxidant activity of the flavonoids.

[3] = target: T1, xanthine oxidase from buttermilk (Bos taurus, UniProt P80457); test: Xanthine oxidase inhibitory assay (XOI); type: biochemical; settings: for xanthine oxidase inhibitory effect (in words): discussion; for IC50: xanthine oxidase inhibition, 295 nm, mean ± SEM (n = 3), NA: not active
T1 construct: 0.3 U/mL enzymes (xanthine oxidase from buttermilk); purchased Sigma-Aldrich (Singapore); host or cells: buttermilk (natural source)
Protocol: XO catalyzes the oxidation of hypoxanthine to xanthine and subsequently to uric acid. The inhibition of XO reduces both vascular oxidative stress and circulating levels of uric acid. This assay is based on the fact that the superoxide anions are generated by the xanthine. The xanthine oxidase inhibitory activity was measured spectrophotometrically (Tecan NanoQuant Infinite M200, Switzerland) at 295 nm under aerobic condition with slight modification. The reaction mixture contained 50 mM phosphate buffer (pH 7.5), 0.15 mM xanthine (substrate), and 0.3 U/mL enzymes (xanthine oxidase from buttermilk). Samples were prepared by dissolving 1 mg in 5% DMSO in MeOH which gives sample concentration of 144.0 μg/mL in assay. […] The absorption increment at 295 nm indicates the formation of […] of uric acid/min at 25°C. […] All determination was done in triplicate and half maximal concentration (IC50) values were calculated from the percentage of inhibition. XO inhibition activity was expressed as the percentage inhibition of XO as follows:(3) % of inhibition=AbsA−B−C−D/AbsA−B×100, where A is the negative control with B as the blank of A which is without the enzyme and the sample while C is the activity of the sample with enzyme with D as the blank of the sample without enzyme.

[4] = Ferric reducing antioxidant power (FRAP); settings: for FRAP (AAE μg): ascorbic acid equivalent, mean ± SEM (n = 3), Table 2
Protocol: This assay was based on the reduction of the ferric tripyridyltriazine (Fe III-TPTZ) complex to the ferrous ion (Fe II) at a low pH forming an intense blue color. In the FRAP assay, compounds that are rich in antioxidant effect exert their action by breaking the free radical chain by donating a hydrogen atom. Briefly, ferric reducing antioxidant power (FRAP) reagent (2.5 mL of a 10 mM TPTZ solution in 40 mM HCl, 2.5 mL of 20 mM FeCl3, and 25 mL of 0.1 M acetate buffer pH 3.6) was prepared and incubated for 10 min at 37°C. Then 20 μL of each compound and ascorbic acid (standard) and 40 μL of FRAP reagent were added to 140 μL of distilled water in a 96-well plate producing a blue-colored solution. The solutions were kept at room temperature for 20 min in the dark and then measured at 593 nm with a microplate reader (Tecan, Switzerland) using a reagent blank composed of 40 μL of FRAP reagents in 200 μL of distilled water. A calibration curve was prepared with a serial dilution of ascorbic acid (standard). The total antioxidant capacity was calculated by interpolating the measured absorbance of the calibration curve and expressed as ascorbic acid equivalents. The results were corrected for dilution and expressed as AAE μg of ascorbic acid/g.

[5] = target: α-glucosidase from Saccharomyces cerevisiae; test: α-Glucosidase inhibitory assay; type: biochemical; settings: Table 3; mean ± SEM (n = 3); NA: not active
Protocol: α-Glucosidase inhibitory activity of the flavonoids was carried out according to the standard method with minor modification. […] A solution of 30 mM phosphate buffer (pH 6.5) was used to prepare stock solution of the sample to form a final concentration of 160 μg/mL. Then, 10 μL/well of sample was mixed with 15 μL/well of α-glucosidase from Saccharomyces cerevisiae (Megazyme, Ireland). 50 mM buffer (pH 6.5) was used to prepare the enzyme solution. Then, 115 μL/well of 30 mM buffer (pH 6.5) was added and incubated for 5 min at room temperature. Then, 75 μL/well of PNP-glucoside was added to initiate reaction and incubated at room temperature for 15 min. Finally, about 50 μL glycine at pH 10 was added to stop the reaction. The final volume of 250 μL of compound, positive control, enzyme, 30 mM buffer, and substrate was located in 96-well microplate. The absorbance (Abs) was measured using microplate reader (Tecan NanoQuant Infinite M200, Switzerland) at 405 nm to represent the amount of p-nitrophenol released from PNP-glucoside. […] The equation given below was used to calculate the inhibitory activity (%):(4) Inhibitory activity%=Abs control−Abs sample/Abs control×100%.
Tested on yeast α-glycosidase, the reaction is initiated by reacting the inhibitor (sample) with the α-glycosidase enzyme that competes with […] for the binding site, thus releasing ρ-nitrophenol which was measured in the assay.

T1 sequence (P80457 whole entry): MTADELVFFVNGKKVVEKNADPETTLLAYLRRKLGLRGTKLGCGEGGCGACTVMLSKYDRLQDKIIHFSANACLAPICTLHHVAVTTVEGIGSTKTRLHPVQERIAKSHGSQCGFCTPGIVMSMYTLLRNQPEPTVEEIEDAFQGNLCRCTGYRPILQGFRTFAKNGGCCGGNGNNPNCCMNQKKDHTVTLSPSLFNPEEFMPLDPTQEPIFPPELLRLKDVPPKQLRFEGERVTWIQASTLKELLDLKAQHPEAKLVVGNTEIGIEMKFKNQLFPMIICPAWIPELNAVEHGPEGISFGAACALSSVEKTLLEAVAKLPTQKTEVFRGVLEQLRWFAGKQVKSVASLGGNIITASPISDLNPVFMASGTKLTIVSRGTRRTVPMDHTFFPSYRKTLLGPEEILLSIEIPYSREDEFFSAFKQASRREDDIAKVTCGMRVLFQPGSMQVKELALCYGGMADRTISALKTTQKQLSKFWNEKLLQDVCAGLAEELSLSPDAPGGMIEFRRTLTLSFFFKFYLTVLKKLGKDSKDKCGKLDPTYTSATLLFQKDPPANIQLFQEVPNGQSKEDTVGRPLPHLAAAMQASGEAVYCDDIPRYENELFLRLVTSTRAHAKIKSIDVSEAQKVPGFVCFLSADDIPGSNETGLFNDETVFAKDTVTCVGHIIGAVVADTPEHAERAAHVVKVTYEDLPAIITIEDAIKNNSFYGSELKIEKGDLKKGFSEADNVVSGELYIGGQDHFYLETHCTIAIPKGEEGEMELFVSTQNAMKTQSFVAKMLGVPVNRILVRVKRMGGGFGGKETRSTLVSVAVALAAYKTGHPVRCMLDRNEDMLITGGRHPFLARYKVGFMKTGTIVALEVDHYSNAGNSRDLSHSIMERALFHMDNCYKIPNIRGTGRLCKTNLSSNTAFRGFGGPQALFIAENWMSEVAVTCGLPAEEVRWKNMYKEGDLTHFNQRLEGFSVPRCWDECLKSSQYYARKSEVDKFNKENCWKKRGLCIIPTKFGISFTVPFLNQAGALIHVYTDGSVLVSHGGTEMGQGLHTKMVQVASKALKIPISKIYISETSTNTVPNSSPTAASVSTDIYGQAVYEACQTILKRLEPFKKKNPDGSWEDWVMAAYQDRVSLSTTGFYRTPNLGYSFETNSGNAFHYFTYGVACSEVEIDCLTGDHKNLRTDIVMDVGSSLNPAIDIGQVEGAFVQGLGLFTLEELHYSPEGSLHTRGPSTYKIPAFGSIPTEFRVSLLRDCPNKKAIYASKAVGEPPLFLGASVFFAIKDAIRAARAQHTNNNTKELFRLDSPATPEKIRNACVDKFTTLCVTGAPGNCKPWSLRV

| Compound | radical scavenging activity by dot blot (intensity of yellow spots) [1] | IC50 ABTS+ [2] | xanthine oxidase inhibitory effect (in words) [3] | IC50 [3] | FRAP antioxidant capacity [4] | FRAP (AAE μg) [4] | IC50 α-Glucosidase [5] |
| --- | --- | --- | --- | --- | --- | --- | --- |
| COc1cc(O)c2c(=O)cc(-c3ccccc3)oc2c1 [Techtochrysin, 5-Hydroxy-7-methoxyflavone] | intermediate radical scavenging activity | 45.59 ± 4.75^E µg/ml | low xanthine oxidase inhibitory activity | > 373 µM | 11.49 ± 0.32 AAE μg of ascorbic acid/g | 11.49 ± 0.32^F AAE μg | >100^A µg/mg |
| O=c1cc(-c2ccc(O)c(O)c2)oc2c(O)c(O)cc(O)c12 [Hypolaetin, 3′,4′,5,7,8-Pentahydroxyflavone] | strong radical scavenging activity | 0.80 ± 0.03^FG µg/ml | low xanthine oxidase inhibitory activity | > 331 µM | – | 177.37 ± 1.82^B AAE μg | 48.42 ± 9.71 µg/mL (≈ 160 µM) |
